The structures appear in SMILES notation. pEC50: −log10 of the molar value. A value given as a limit tells only on which side of the number the result lay.

Our source for the EC50 values is patent US10160729B2, “Hsp70 modulators and methods for making and using the same” (Memorial Sloan Kettering Cancer Center, priority 2014, dated 2018).

The test system of this assay is MOLM-13 cells. Put plainly: Caspase cleavage assay (Caspase3, 7 activation). Conditions: Homo sapiens, 16 h treatment, caspase substrate Z-DEVD-R110, read-out: c* Concentration at which 50% of the maximum signal was achieved (caspase activation). It is filed as cell-based. How it is done: Caspase3, 7 Activation. MOLM-13 cells (30,000 cells/well) were plated in black 96-well plates (Corning Cat. #3603) in 40 μL of RPMI media, and left in an incubator (37° C., 5% CO2) for up to 24 h. Cells were treated for 16 h with compounds or DMSO (control) at desired concentrations in 50 μL of media. Drugs were added in triplicate wells. Following exposure of cells to Hsp70 inhibitors, 50 μL of buffer containing 10 mM HEPES (pH 7.5), 2 mM EDTA, 0.1% CHAPS and the caspase substrate Z-DEVD-R110 at 25 μM was added to each well. Plates were incubated until the signal stabilized and then the fluorescence signal of each well was measured in an Analyst GT microplate reader. The percentage increase in apoptotic cells was calculated by comparison of the fluorescence reading obtained from treated versus control cells.
As to `COc1cccc(COc2nc(N3CC(N(C)C)C3)ncc2Sc2ccc(C(N)=O)cc2)c1` [190m, 4-((2-(3-(Dimethylamino)azetidin-1-yl)-4-((3-methoxybenzyl)oxy)pyrimidin-5-yl)thio)benzamide], the pEC50 is more than 6.70. Regarding `C#CC(C)N1CCN(c2ncc(Sc3ccc(C(N)=O)cc3)c(OCc3cccc(OC)c3)n2)CC1` (stereo not drawn) [190n, 4-((2-(4-(But-3-yn-2-yl)piperazin-1-yl)-4-((3-methoxybenzyl)oxy)pyrimidin-5-yl)thio)benzamide], the pEC50 was 6.40 to 6.70. To `C=CCN1CCN(c2ncc(Sc3ccc(C(N)=O)cc3)c(OCc3cccc(OC)c3)n2)CC1` [190o, 4-((2-(4-Allylpiperazin-1-yl)-4-((3-methoxybenzyl)oxy)pyrimidin-5-yl)thio)benzamide] belongs more than 6.70; to `COc1cccc(COc2nc(N3CCN(C4CC4)CC3)ncc2Sc2ccc(C(N)=O)cc2)c1` [190p, 4-((2-(4-Cyclopropylpiperazin-1-yl)-4-((3-methoxybenzyl)oxy)pyrimidin-5-yl)thio) benzamide], more than 6.70; to `COc1cccc(COc2nc(N3CCN(CC4CC4)CC3)ncc2Sc2ccc(C(N)=O)cc2)c1` [190q, 4-((2-(4-(Cyclopropylmethyl)piperazin-1-yl)-4-((3-methoxybenzyl)oxy)pyrimidin-5-yl)thio)benzamide], more than 6.70. To `COc1cccc(COc2nc(N3CCN(C4COC4)CC3)ncc2Sc2ccc(C(N)=O)cc2)c1` [190r, 4-((4-((3-Methoxybenzyl)oxy)-2-(4-(oxetan-3-yl)piperazin-1-yl)pyrimidin-5-yl)thio)benzamide] belongs 6.40 to 6.70; to `COc1cccc(COc2nc(N3CCN(C)C(=O)C3)ncc2Sc2ccc(C(N)=O)cc2)c1` [190t, 4-((4-((3-Methoxybenzyl)oxy)-2-(4-methyl-3-oxopiperazin-1-yl)pyrimidin-5-yl)thio) benzamide], more than 6.70; to `COc1cccc(COc2nc(N3CCN(Cc4ccco4)CC3)ncc2Sc2ccc(C(N)=O)cc2)c1` [190u, 4-((2-(4-(Furan-2-ylmethyl)piperazin-1-yl)-4-((3-methoxybenzyl)oxy)pyrimidin-5-yl)thio)benzamide], more than 6.70.

On to `COc1cccc(COc2nc(N3CCN(Cc4nccs4)CC3)ncc2Sc2ccc(C(N)=O)cc2)c1` [190v, 4-((4-((3-Methoxybenzyl)oxy)-2-(4-(thiazol-2-ylmethyl)piperazin-1-yl)pyrimidin-5-yl)thio)benzamide], for which the pEC50 is more than 6.70. As to `CN1CCN(c2ncc(Sc3ccc(N)cc3)c(OCc3ccccc3)n2)CC1` [compound 10, 4-(4-(Benzyloxy)-2-(4-methylpiperazin-1-yl)pyrimidin-5-ylthio)aniline], the pEC50 was 6.00 to 6.40. As for `COc1ccc(Sc2cnc(N3CCN(C)CC3)nc2OCc2ccccc2)cc1N` [compound 11, 5-((4-(Benzyloxy)-2-(4-methylpiperazin-1-yl)pyrimidin-5-yl)thio)-2-methoxyaniline], the figure is 6.40 to 6.70. For the compound `CN1CCN(c2ncc(Sc3cccnc3N)c(OCc3ccccc3)n2)CC1` [compound 13, 3-((4-(Benzyloxy)-2-(4-methylpiperazin-1-yl)pyrimidin-5-yl)thio)pyridin-2-amine], the pEC50 is 6.00 to 6.40. Consider `CN1CCN(c2ncc(Sc3ccc(C=O)o3)c(OCc3ccccc3)n2)CC1` [compound 29, 5-((4-(Benzyloxy)-2-(4-methylpiperazin-1-yl)pyrimidin-5-yl)thio)furan-2-carbaldehyde], for which the pEC50 is 6.00 to 6.40. As for `CC(=O)c1ccc(Sc2cnc(N3CCN(C)CC3)nc2OCc2ccccc2)s1` [compound 30, 1-(5-((4-(Benzyloxy)-2-(4-methylpiperazin-1-yl)pyrimidin-5-yl)thio)thiophen-2-yl)ethanone], the figure is 6.00 to 6.40; as for `CC(=O)c1ccc(Sc2cnc(N3CCN(C)CC3)nc2OCc2ccccc2)cc1` [compound 36, 1-(4-((4-(Benzyloxy)-2-(4-methylpiperazin-1-yl)pyrimidin-5-yl)thio)phenyl)ethanone], 5.92 to 6.00. To `CN1CCN(c2ncc(Sc3ccc(O)cc3)c(OCc3ccccc3)n2)CC1` [compound 37, 4-((4-(Benzyloxy)-2-(4-methylpiperazin-1-yl)pyrimidin-5-yl)thio)phenol] belongs 6.00 to 6.40; to `CN1CCN(c2ncc(Sc3cccc(C=O)c3)c(OCc3ccccc3)n2)CC1` [compound 43, 3-((4-(Benzyloxy)-2-(4-methylpiperazin-1-yl)pyrimidin-5-yl)thio)benzaldehyde], 6.00 to 6.40; to `CN1CCN(c2ncc(Sc3ccc(C#N)cc3)c(OCc3ccccc3)n2)CC1` [compound 44, 4-((4-(Benzyloxy)-2-(4-methylpiperazin-1-yl)pyrimidin-5-yl)thio)benzonitrile], 6.00 to 6.40. As for `CN1CCN(c2ncc(Sc3ccc(C=O)cc3)c(OCc3ccccc3)n2)CC1` [compound 45, 4-((4-(Benzyloxy)-2-(4-methylpiperazin-1-yl)pyrimidin-5-yl)thio)benzaldehyde], the pEC50 was 6.40 to 6.70.

As for `CN1CCN(c2ncc(Sc3cccc(C#N)c3)c(OCc3ccccc3)n2)CC1` [compound 47, 3-((4-(Benzyloxy)-2-(4-methylpiperazin-1-yl)pyrimidin-5-yl)thio)benzonitrile], the pEC50 was 6.00 to 6.40. `COC(=O)c1ccc(Sc2cnc(N3CCN(C)CC3)nc2OCc2ccccc2)cc1` [compound 49, Methyl 4-((4-(benzyloxy)-2-(4-methylpiperazin-1-yl)pyrimidin-5-yl)thio)benzoate]: the pEC50 is 6.40 to 6.70.

With `C=CC(=O)Nc1ccc(Sc2cnc(N3CCN(C)CC3)nc2OCc2ccccc2)cn1` [compound 56, N-(5-((4-(Benzyloxy)-2-(4-methylpiperazin-1-yl)pyrimidin-5-yl)thio)pyridin-2-yl)acrylamide], the pEC50 was not above 5.92. As for `CN1CCN(c2ncc(Sc3ccc(NC(=O)CN)cc3)c(OCc3ccccc3)n2)CC1` [compound 58, 2-Amino-N-(4-((4-(benzyloxy)-2-(4-methylpiperazin-1-yl)pyrimidin-5-yl)thio)phenyl)acetamide], the figure is 6.00 to 6.40. To `COc1ccc(Sc2cnc(N3CCN(C)CC3)nc2OCc2ccccc2)c(N)c1` [compound 62, 2-((4-(Benzyloxy)-2-(4-methylpiperazin-1-yl)pyrimidin-5-yl)thio)-5-methoxyaniline] belongs 6.00 to 6.40; to `COc1ncc(Sc2cnc(N3CCN(C)CC3)nc2OCc2ccccc2)cc1N` [compound 63, 5-((4-(Benzyloxy)-2-(4-methylpiperazin-1-yl)pyrimidin-5-yl)thio)-2-methoxypyridin-3-amine], not above 5.92. To `CC(Oc1ccc(Sc2cnc(N3CCN(C)CC3)nc2OCc2ccccc2)cc1)C(N)=O` (stereo not drawn) [compound 65, 2-(4-((4-(Benzyloxy)-2-(4-methylpiperazin-1-yl)pyrimidin-5-yl)thio)phenoxy)propanamide] belongs 6.00 to 6.40; to `CN1CCN(c2ncc(Sc3ccc(C(N)=O)cc3)c(OCc3ccccc3)n2)CC1` [compound 66, 4-((4-(Benzyloxy)-2-(4-methylpiperazin-1-yl)pyrimidin-5-yl)thio)benzamide], 6.40 to 6.70. For the compound `CN1CCN(c2ncc(Sc3cccc(C(N)=O)c3)c(OCc3ccccc3)n2)CC1` [compound 67, 3-((4-(Benzyloxy)-2-(4-methylpiperazin-1-yl)pyrimidin-5-yl)thio)benzamide], the pEC50 was 6.40 to 6.70.

`CN1CCN(c2ncc(Sc3ccc(F)c(C(N)=O)c3)c(OCc3ccccc3)n2)CC1` [compound 68, 5-((4-(Benzyloxy)-2-(4-methylpiperazin-1-yl)pyrimidin-5-yl)thio)-2-fluorobenzamide]: the pEC50 is 5.92 to 6.00.

On to `CN1CCN(c2ncc(Sc3ccc(C(N)=O)c(C(F)(F)F)c3)c(OCc3ccccc3)n2)CC1` [compound 70, 4-((4-(Benzyloxy)-2-(4-methylpiperazin-1-yl)pyrimidin-5-yl)thio)-2-(trifluoromethyl)benzamide], for which the pEC50 is more than 6.70. As to `Cc1cc(C(N)=O)ccc1Sc1cnc(N2CCN(C)CC2)nc1OCc1ccccc1` [compound 73, 4-((4-(Benzyloxy)-2-(4-methylpiperazin-1-yl)pyrimidin-5-yl)thio)-3-methylbenzamide], the pEC50 is 5.92 to 6.00. `Cc1cc(Sc2cnc(N3CCN(C)CC3)nc2OCc2ccccc2)ccc1C(N)=O` [compound 74, 4-((4-(Benzyloxy)-2-(4-methylpiperazin-1-yl)pyrimidin-5-yl)thio)-2-methylbenzamide]: the pEC50 is 6.00 to 6.40. As for `CN1CCN(c2ncc(Sc3ccc(C(N)=O)c(Br)c3)c(OCc3ccccc3)n2)CC1` [compound 77, 4-((4-(Benzyloxy)-2-(4-methylpiperazin-1-yl)pyrimidin-5-yl)thio)-2-bromobenzamide], the figure is 6.40 to 6.70. To `CN1CCN(c2ncc(Sc3ccc(C(N)=O)c(Cl)c3)c(OCc3ccccc3)n2)CC1` [compound 78, 4-((4-(Benzyloxy)-2-(4-methylpiperazin-1-yl)pyrimidin-5-yl)thio)-2-chlorobenzamide] belongs 6.00 to 6.40; to `CN1CCN(c2ncc(Sc3ccc(C(N)=O)c(F)c3)c(OCc3ccccc3)n2)CC1` [compound 79, 4-((4-(Benzyloxy)-2-(4-methylpiperazin-1-yl)pyrimidin-5-yl)thio)-2-fluorobenzamide], 6.40 to 6.70; to `CN1CCN(c2ncc(Sc3ccc(C(N)=O)c(I)c3)c(OCc3ccccc3)n2)CC1` [compound 80, 4-((4-(Benzyloxy)-2-(4-methylpiperazin-1-yl)pyrimidin-5-yl)thio)-2-iodobenzamide], 6.00 to 6.40.
